Data taken from patent publication US20080293038A1, “Method for Determining Resistance of Hiv to Nucleoside Reverse Transcriptase Inhibitor Treatment” (priority 2005, published 2008).
Read-outs that look alike come from different tables or passages of the source.

System: HIV-1 isolates from patient plasma samples (recombinant virus with patient PR-RT segment)
Description: Phenotypic drug susceptibility is measured as the concentration of drug required to inhibit virus replication by 50% (IC50). As used herein, a “fold change” or “FC” is the ratio of a viral variant IC50 divided by the IC50 of a reference HIV.
The clinical cutoff has been identified as a 3.5-fold change (“FC”) for the PHENOSENSE™ phenotypic HIV assay for FTC.
A set of reverse transcriptase mutations for FTC was generated utilizing the HIPAA-compliant database of over 48,000 linked phenotype and genotype results for patient's samples maintained by ViroLogic, Inc. (South San Francisco, Calif.). Phenotypes and genotypes were determined in the ViroLogic clinical laboratory. […] In this subset excluding the wild-type samples, a total of 13,576 samples had IC50 fold change (FC) data available for FTC.
The drug susceptibility phenotypes of the HIV-1 isolates from patient plasma samples was determined by the PHENOSENSE™ phenotype HIV assay. This assay was performed by amplifying the PR-RT segment of the pol gene from patient plasma and inserting it into a genomic HIV-1 vector. The vector contained a luciferase reporter gene to monitor recombinant virus infection in cell culture. Results were expressed as the FC in the IC50 for the patient-derived virus compared to that for a reference control virus, NL4-3. Drug dilutions were arranged to maximize curve-fitting accuracy for the range of wildtype virus susceptibilities over clinically relevant ranges of increased and decreased susceptibilities. Microtiter plates were incubated in customized incubators in which the temperature, CO2 level, and humidity were controlled to minimize variation in cell growth and medium composition changes throughout the plate.
The five rules were tested separately and with the condition that none of the other rules were verified as true, except for rule 2. […] In this exercise, because of large number of samples in each category, mixtures (if present at accessory positions) were considered as mutant. In rule 2, because of the low number of samples with T69 insertion without NAMs, the condition was defined to select samples with T69 insertion and with no mutation Q151M, K65R, M184I, M184V or M184T.

Nc1nc(=O)n([C@@H]2CS[C@H](CO)O2)cc1F [FTC, emtricitabine]
samples classified as phenotypically resistant (dataset of 13,576 patient samples (wild-type excluded) with FTC FC data, 8,589 samples resistant): 63.2% | PR % (samples phenotypically resistant to FTC) (rule 1: samples with RT mutation Q151M only, PR = FC at or above clinical cutoff 3.5 vs NL4-3): 53.8% | PR % (samples phenotypically resistant to FTC) (rule 2: samples with T69 insertion (possible NAMs), no Q151M, K65R, M184I/V/T, cutoff FC 3.5): 89.4% | PR % (samples phenotypically resistant to FTC) (rule 3: samples with RT mutation K65R only, cutoff FC 3.5): 95.2% | PR % (samples phenotypically resistant to FTC) (rule 4: samples with M184I, V or T only, cutoff FC 3.5): 100% | PR % (samples phenotypically resistant to FTC) (rule 5: samples with 4 or more NAMs (M41L, E44A/D, D67N, K70R, V118I, L210W, T215F/Y, K219E/H/N/Q/R) only, cutoff FC 3.5): 87.1% | PR % (samples phenotypically resistant to FTC) (totals: all 2794 samples meeting only one of the five rules, cutoff FC 3.5): 94.9%
